Experimental data as given in PMC5218480 (PLoS ONE, 2017).

System: MV-4-11 cells
Assay: Gene expression microarray analysis (Affymetrix PrimeView) and GSEA
Assay type: cell-based, human
Set-up: RFU PODN (11730768_x_at) / Fold change /veh PODN (11730768_x_at) / RFU LINC00158 (11744669_a_at) / Fold change /veh LINC00158 (11744669_a_at) / RFU DUSP10 (11751237_a_at) / Fold change /veh DUSP10 (11751237_a_at) / RFU ID3 (11757404_x_at) / Fold change /veh ID3 (11757404_x_at) / RFU PLEKHG5 (11737974_s_at) / Fold change /veh PLEKHG5 (11737974_s_at) / RFU LRRC4B (11730491_at) / Fold change /veh LRRC4B (11730491_at) / RFU GIMAP4 (11747438_a_at) / Fold change /veh GIMAP4 (11747438_a_at) / RFU KRT8 (11758183_x_at) / Fold change /veh KRT8 (11758183_x_at) / RFU CNN1 (11734310_a_at) / Fold change /veh CNN1 (11734310_a_at) / RFU VPS37D (11726825_at) / Fold change /veh VPS37D (11726825_at) / RFU C10orf10 (11716522_x_at) / Fold change /veh C10orf10 (11716522_x_at) / RFU KIR2DL2 /// KIR2DL4 /// KIR2DL5A /// KIR2DL5B /// KIR2DS1 /// KIR2DS2 /// KIR2DS3 /// KIR2DS4 /// KIR3DL3 /// KIR3DL3 /// KIR3DS1 (11738374_at) / Fold change /veh KIR2DL2 /// KIR2DL4 /// KIR2DL5A /// KIR2DL5B /// KIR2DS1 /// KIR2DS2 /// KIR2DS3 /// KIR2DS4 /// KIR3DL3 /// KIR3DL3 /// KIR3DS1 (11738374_at) / RFU C1QL1 (11718748_at) / Fold change /veh C1QL1 (11718748_at) / RFU TMPRSS4 (11747572_a_at) / Fold change /veh TMPRSS4 (11747572_a_at) / RFU HAMP (11756126_x_at) / Fold change /veh HAMP (11756126_x_at) / RFU RNFT2 (11725882_a_at) / Fold change /veh RNFT2 (11725882_a_at) / RFU NR4A2 (11747474_a_at) / Fold change /veh NR4A2 (11747474_a_at) / RFU ABCC12 (11746883_a_at) / Fold change /veh ABCC12 (11746883_a_at) / RFU TMEM136 (11760407_x_at) / Fold change /veh TMEM136 (11760407_x_at) / RFU CLDN22 /// WWC2 (11732394_at) / Fold change /veh CLDN22 /// WWC2 (11732394_at) / RFU HLA-DPB1 (11760878_x_at) / Fold change /veh HLA-DPB1 (11760878_x_at) / RFU SPINT1 (11716480_a_at) / Fold change /veh SPINT1 (11716480_a_at) / RFU GAP43 (11754022_s_at) / Fold change /veh GAP43 (11754022_s_at) / RFU A4GNT (11735810_at) / Fold change /veh A4GNT (11735810_at) / RFU PRB3 (11715151_x_at) / Fold change /veh PRB3 (11715151_x_at) / RFU TUBB4B (11761932_at) / Fold change /veh TUBB4B (11761932_at) / RFU CAPN14 (11732068_a_at) / Fold change /veh CAPN14 (11732068_a_at) / RFU TMCC2 (11721928_a_at) / Fold change /veh TMCC2 (11721928_a_at) / RFU IRGQ (11745062_a_at) / Fold change /veh IRGQ (11745062_a_at) / RFU FAM174B (11720279_a_at) / Fold change /veh FAM174B (11720279_a_at) / RFU TMPRSS4 (11748680_a_at) / Fold change /veh TMPRSS4 (11748680_a_at) / RFU FAM212B (11763350_a_at) / Fold change /veh FAM212B (11763350_a_at) / RFU PLEKHG5 (11743358_a_at) / Fold change /veh PLEKHG5 (11743358_a_at) / RFU ZSCAN30 (11745921_a_at) / Fold change /veh ZSCAN30 (11745921_a_at) / RFU CMKLR1 (11741424_a_at) / Fold change /veh CMKLR1 (11741424_a_at) / RFU LOC101060620 /// MAPK8IP1 (11723275_at) / Fold change /veh LOC101060620 /// MAPK8IP1 (11723275_at) / RFU SPTSSB (11747773_x_at) / Fold change /veh SPTSSB (11747773_x_at) / RFU PRSS12 (11739890_at) / Fold change /veh PRSS12 (11739890_at) / RFU BIN1 (11741810_x_at) / Fold change /veh BIN1 (11741810_x_at) / RFU WNT11 (11732464_a_at) / Fold change /veh WNT11 (11732464_a_at) / RFU C10orf10 (11716521_a_at) / Fold change /veh C10orf10 (11716521_a_at) / RFU C5orf56 (11738089_at) / Fold change /veh C5orf56 (11738089_at) / RFU CYB561 (11721691_x_at) / Fold change /veh CYB561 (11721691_x_at) / RFU ANKRD19P (11752326_a_at) / Fold change /veh ANKRD19P (11752326_a_at) / RFU OR2T12 /// OR2T33 /// OR2T8 (11738714_s_at) / Fold change /veh OR2T12 /// OR2T33 /// OR2T8 (11738714_s_at) / RFU VCAN (11748164_a_at) / Fold change /veh VCAN (11748164_a_at) / RFU JSRP1 (11732532_at) / Fold change /veh JSRP1 (11732532_at) / RFU KRTAP10-11 (11738290_x_at) / Fold change /veh KRTAP10-11 (11738290_x_at) / RFU MYO3A (11730013_a_at) / Fold change /veh MYO3A (11730013_a_at) / RFU EBF3 (11725865_a_at) / Fold change /veh EBF3 (11725865_a_at) / RFU CAMK2N1 (11719241_x_at) / Fold change /veh CAMK2N1 (11719241_x_at) / RFU C5orf56 (11738088_a_at) / Fold change /veh C5orf56 (11738088_a_at) / RFU OLFML3 (11715873_a_at) / Fold change /veh OLFML3 (11715873_a_at) / RFU LOC100653217 /// NTM (11731650_a_at) / Fold change /veh LOC100653217 /// NTM (11731650_a_at) / RFU MAPK11 (11762145_a_at) / Fold change /veh MAPK11 (11762145_a_at) / RFU FIZ1 (11724087_x_at) / Fold change /veh FIZ1 (11724087_x_at) / RFU OASL (11726364_x_at) / Fold change /veh OASL (11726364_x_at) / RFU SOX15 (11748057_x_at) / Fold change /veh SOX15 (11748057_x_at) / RFU CD79A (11719716_a_at) / Fold change /veh CD79A (11719716_a_at) / RFU HIST1H1D (11736915_at) / Fold change /veh HIST1H1D (11736915_at) / RFU CASKIN2 (11723855_a_at) / Fold change /veh CASKIN2 (11723855_a_at) / RFU LOC730098 (11760151_x_at) / Fold change /veh LOC730098 (11760151_x_at) / RFU OR4N2 (11742367_at) / Fold change /veh OR4N2 (11742367_at) / RFU PRRT2 (11749266_a_at) / Fold change /veh PRRT2 (11749266_a_at) / RFU SNX32 (11753110_a_at) / Fold change /veh SNX32 (11753110_a_at) / RFU CDHR5 (11726645_a_at) / Fold change /veh CDHR5 (11726645_a_at) / RFU RCAN1 (11760418_a_at) / Fold change /veh RCAN1 (11760418_a_at) / RFU FAM167A (11723789_a_at) / Fold change /veh FAM167A (11723789_a_at) / RFU FAM26E (11764081_at) / Fold change /veh FAM26E (11764081_at) / RFU ISYNA1 (11749810_s_at) / Fold change /veh ISYNA1 (11749810_s_at) / RFU ACY1 (11761880_at) / Fold change /veh ACY1 (11761880_at) / RFU 11764098_at / Fold change /veh 11764098_at / RFU SAMD14 (11745864_x_at) / Fold change /veh SAMD14 (11745864_x_at) / RFU NPB (11741838_a_at) / Fold change /veh NPB (11741838_a_at) / RFU TMPRSS6 (11731388_a_at) / Fold change /veh TMPRSS6 (11731388_a_at) / RFU KRTAP10-2 (11738614_at) / Fold change /veh KRTAP10-2 (11738614_at) / RFU ARHGAP8 /// PRR5-ARHGAP8 (11727945_x_at) / Fold change /veh ARHGAP8 /// PRR5-ARHGAP8 (11727945_x_at) / RFU KRTAP5-7 /// NADSYN1 (11734609_at) / Fold change /veh KRTAP5-7 /// NADSYN1 (11734609_at) / RFU RASL12 (11751679_a_at) / Fold change /veh RASL12 (11751679_a_at) / RFU CDKN2B (11736163_a_at) / Fold change /veh CDKN2B (11736163_a_at) / RFU PRF1 (11729649_at) / Fold change /veh PRF1 (11729649_at) / RFU, ZNF638 /// ZNF638-IT1 / Fold change vs veh, ZNF638 /// ZNF638-IT1 / RFU, PANK3 / Fold change vs veh, PANK3 / RFU, SH3YL1 / Fold change vs veh, SH3YL1 / RFU, ZEB2 / Fold change vs veh, ZEB2 / RFU, NRIP1 / Fold change vs veh, NRIP1 / RFU, PTTG1IP / Fold change vs veh, PTTG1IP / RFU, CAPN2 / Fold change vs veh, CAPN2 / RFU, MED14 / Fold change vs veh, MED14 / RFU, SNORA58 / Fold change vs veh, SNORA58 / RFU, C1orf63 / Fold change vs veh, C1orf63 / RFU, LRRFIP1 / Fold change vs veh, LRRFIP1 / RFU, NDUFAF7 / Fold change vs veh, NDUFAF7 / RFU, SLC12A2 / Fold change vs veh, SLC12A2 / RFU, IBTK / Fold change vs veh, IBTK / RFU, ESF1 / Fold change vs veh, ESF1 / Fold change vs veh, TMEM50B / RFU, TAOK1 / Fold change vs veh, TAOK1 / RFU, ACBD3 / Fold change vs veh, ACBD3 / RFU, TMA16 / Fold change vs veh, TMA16 / RFU, RWDD3 / Fold change vs veh, RWDD3 / RFU, BCAT1 / Fold change vs veh, BCAT1 / RFU, EDEM3 / Fold change vs veh, EDEM3 / RFU, TMEM33 / Fold change vs veh, TMEM33 / RFU, WDR75 / Fold change vs veh, WDR75 / RFU, AHCTF1 / Fold change vs veh, AHCTF1 / RFU, TFRC / Fold change vs veh, TFRC / RFU, ZDHHC17 / Fold change vs veh, ZDHHC17 / RFU, NOM1 / Fold change vs veh, NOM1 / RFU, ARL8B / Fold change vs veh, ARL8B / RFU, ZBTB11 / Fold change vs veh, ZBTB11 / RFU, TAMM41 / Fold change vs veh, TAMM41 / RFU, KIAA1704 /// LOC100996395 / Fold change vs veh, KIAA1704 /// LOC100996395 / RFU, ING1 / Fold change vs veh, ING1 / RFU, TRMT61B / Fold change vs veh, TRMT61B / RFU, FUBP3 / Fold change vs veh, FUBP3 / RFU, TP53 / Fold change vs veh, TP53 / RFU, TNKS2 / Fold change vs veh, TNKS2 / RFU, ZFP14 / Fold change vs veh, ZFP14 / RFU, ACTR2 / Fold change vs veh, ACTR2 / RFU, PPP3R1 / Fold change vs veh, PPP3R1 / RFU, PIK3R1 / Fold change vs veh, PIK3R1 / RFU, HNRNPA1 / Fold change vs veh, HNRNPA1 / RFU, RNF170 / Fold change vs veh, RNF170 / RFU, ZNF28 / Fold change vs veh, ZNF28 / RFU, RNGTT / Fold change vs veh, RNGTT / RFU, OGT / Fold change vs veh, OGT / RFU, BRD1 / Fold change vs veh, BRD1 / RFU, MARS / Fold change vs veh, MARS / RFU, ZNF655 / Fold change vs veh, ZNF655 / RFU, FAHD1 / Fold change vs veh, FAHD1 / RFU, BDP1 / Fold change vs veh, BDP1 / RFU, LRRCC1 / Fold change vs veh, LRRCC1 / RFU, ARID1A / Fold change vs veh, ARID1A / RFU, ZNF146 / Fold change vs veh, ZNF146 / RFU, ZNF330 / Fold change vs veh, ZNF330 / RFU, GPN3 / Fold change vs veh, GPN3 / RFU, C9orf123 / Fold change vs veh, C9orf123 / RFU, N4BP2L2 / Fold change vs veh, N4BP2L2 / RFU, ARFIP1 / Fold change vs veh, ARFIP1 / RFU, FAM179B / Fold change vs veh, FAM179B / RFU, BCL10 / Fold change vs veh, BCL10 / RFU, UHRF1BP1L / Fold change vs veh, UHRF1BP1L / RFU, BET1 / Fold change vs veh, BET1 / RFU, CNOT2 / Fold change vs veh, CNOT2 / RFU, ZNF268 / Fold change vs veh, ZNF268 / Fold change vs veh, ZNF507 / RFU, DGCR2 / Fold change vs veh, DGCR2 / RFU, WDSUB1 / Fold change vs veh, WDSUB1 / Fold change vs veh, HSP90B1 /// MIR3652 / RFU, ADSS / Fold change vs veh, ADSS / RFU, GK / Fold change vs veh, GK / RFU, ZNF148 / Fold change vs veh, ZNF148 / RFU, TAF9 / Fold change vs veh, TAF9 / RFU, SLC1A5 / Fold change vs veh, SLC1A5 / RFU, SLMO2 / Fold change vs veh, SLMO2 / RFU, ABCC4 / Fold change vs veh, ABCC4 / RFU, LOC101060439 /// RAP1B / Fold change vs veh, LOC101060439 /// RAP1B / RFU, RFX7 / Fold change vs veh, RFX7 / RFU, GTPBP10 / Fold change vs veh, GTPBP10 / RFU, CNEP1R1 / Fold change vs veh, CNEP1R1 / RFU, BIVM-ERCC5 /// ERCC5 / Fold change vs veh, BIVM-ERCC5 /// ERCC5 / RFU, ILF3 / Fold change vs veh, ILF3 / RFU 11762660_at / Fold change /veh 11762660_at / RFU VCAN (11757783_s_at) / Fold change /veh VCAN (11757783_s_at) / RFU DDX43 (11728927_at) / Fold change /veh DDX43 (11728927_at) / RFU KRT8 (11758188_x_at) / Fold change /veh KRT8 (11758188_x_at) / RFU NKD1 (11759106_at) / Fold change /veh NKD1 (11759106_at) / RFU SRD5A1 (11742802_a_at) / Fold change /veh SRD5A1 (11742802_a_at) / RFU TPSAB1 /// TPSB2 (11721975_s_at) / Fold change /veh TPSAB1 /// TPSB2 (11721975_s_at) / RFU GSTM3 (11746129_a_at) / Fold change /veh GSTM3 (11746129_a_at) / RFU IL23R (11737362_x_at) / Fold change /veh IL23R (11737362_x_at) / RFU TMEM51 (11727254_a_at) / Fold change /veh TMEM51 (11727254_a_at) / RFU PIWIL2 (11732686_x_at) / Fold change /veh PIWIL2 (11732686_x_at) / RFU ORM1 (11744905_x_at) / Fold change /veh ORM1 (11744905_x_at) / RFU CCDC152 (11743942_at) / Fold change /veh CCDC152 (11743942_at) / RFU ECM1 (11717891_a_at) / Fold change /veh ECM1 (11717891_a_at) / RFU IL23R (11748794_a_at) / Fold change /veh IL23R (11748794_a_at) / RFU TNFAIP8L3 (11732012_x_at) / Fold change /veh TNFAIP8L3 (11732012_x_at) / RFU MBOAT4 (11741988_at) / Fold change /veh MBOAT4 (11741988_at) / RFU 11764193_at / Fold change /veh 11764193_at / RFU TMEM53 (11763286_at) / Fold change /veh TMEM53 (11763286_at) / RFU MAGEB2 (11727129_at) / Fold change /veh MAGEB2 (11727129_at) / RFU TMEM200A (11744735_a_at) / Fold change /veh TMEM200A (11744735_a_at) / RFU CCDC152 (11751479_a_at) / Fold change /veh CCDC152 (11751479_a_at) / RFU FAM211A (11726209_a_at) / Fold change /veh FAM211A (11726209_a_at) / RFU RGS16 (11746705_a_at) / Fold change /veh RGS16 (11746705_a_at) / RFU VCAN (11755009_s_at) / Fold change /veh VCAN (11755009_s_at) / RFU RHOB (11743442_s_at) / Fold change /veh RHOB (11743442_s_at) / RFU RGS16 (11720943_a_at) / Fold change /veh RGS16 (11720943_a_at) / RFU RGS16 (11720944_at) / Fold change /veh RGS16 (11720944_at) / RFU, VPS4B / Fold change vs veh, VPS4B / RFU, CREB1 / Fold change vs veh, CREB1 / RFU, DNAJC13 / Fold change vs veh, DNAJC13 / RFU, GNAQ / Fold change vs veh, GNAQ / RFU, CDK5R1 / Fold change vs veh, CDK5R1 / RFU, ZRANB3 / Fold change vs veh, ZRANB3 / RFU, CUL4A / Fold change vs veh, CUL4A / RFU, CCNY / Fold change vs veh, CCNY / RFU, UFL1 / Fold change vs veh, UFL1 / RFU, COG3 / Fold change vs veh, COG3 / RFU, DIAPH2 / Fold change vs veh, DIAPH2 / RFU, SKA2 / Fold change vs veh, SKA2 / RFU, AFF3 / Fold change vs veh, AFF3 / RFU, LMF1 / Fold change vs veh, LMF1 / RFU, IPO11 / Fold change vs veh, IPO11 / RFU, DFFB / Fold change vs veh, DFFB / RFU, FOXP1 / Fold change vs veh, FOXP1 / RFU, CARD8 / Fold change vs veh, CARD8 / RFU, STRN3 / Fold change vs veh, STRN3 / RFU, ADK / Fold change vs veh, ADK / RFU, RASSF2 / Fold change vs veh, RASSF2 / RFU, WIPF1 / Fold change vs veh, WIPF1 / RFU, LARP1B / Fold change vs veh, LARP1B / RFU, RASA1 / Fold change vs veh, RASA1 / RFU, RB1 / Fold change vs veh, RB1 / RFU, PPFIA1 / Fold change vs veh, PPFIA1 / RFU, MAT2A / Fold change vs veh, MAT2A / RFU, CCT5 / Fold change vs veh, CCT5 / RFU, WDR92 / Fold change vs veh, WDR92 / RFU, CUX1 / Fold change vs veh, CUX1 / RFU, TTC7A / Fold change vs veh, TTC7A / RFU, TMEM135 / Fold change vs veh, TMEM135 / RFU, DEPTOR / Fold change vs veh, DEPTOR / RFU, CPM / Fold change vs veh, CPM / RFU, DNAJB6 / Fold change vs veh, DNAJB6 / RFU, CACNA2D3 / Fold change vs veh, CACNA2D3 / RFU, DTX4 / Fold change vs veh, DTX4 / RFU, TFCP2 / Fold change vs veh, TFCP2 / RFU, GMCL1 /// GMCL1P1 / Fold change vs veh, GMCL1 /// GMCL1P1 / RFU, AEBP2 / Fold change vs veh, AEBP2 / RFU, SNHG1 /// SNORD22 /// SNORD25 /// SNORD26 /// SNORD27 /// SNORD28 /// SNORD29 /// SNORD31 / Fold change vs veh, SNHG1 /// SNORD22 /// SNORD25 /// SNORD26 /// SNORD27 /// SNORD28 /// SNORD29 /// SNORD31 / Fold change (Aza/veh), C12orf56 (ProbeSet 11735607_a_at) / Fold change (ACY-1035/veh), C12orf56 (ProbeSet 11735607_a_at) / Fold change (Aza/veh), FGFR1OP (ProbeSet 11751329_s_at) / Fold change (ACY-1035/veh), FGFR1OP (ProbeSet 11751329_s_at) / Fold change (Aza/veh), VPS36 (ProbeSet 11739960_a_at) / Fold change (ACY-1035/veh), VPS36 (ProbeSet 11739960_a_at) / RFU SYPL1 (11715823_x_at) / Fold change /veh SYPL1 (11715823_x_at) / RFU IGFBP7 (11715501_s_at) / Fold change /veh IGFBP7 (11715501_s_at) / RFU REEP3 (11722064_at) / Fold change /veh REEP3 (11722064_at) / RFU IGLL1 (11728026_x_at) / Fold change /veh IGLL1 (11728026_x_at): dose or concentration left out as unconfirmed
Conditions: ProbeSet 11758779_at; LIST B

## Nc1ncn([C@@H]2O[C@H](CO)[C@@H](O)[C@H]2O)c(=O)n1 [azacitidine]
  Fold change vs veh, TMEM50B: 0.94
